The text below walks through data of US9804176B2, “Assays for vitamin D epimers” (Siemens Healthcare Diagnostics Inc., priority 2014, dated 2017).

Where “and” joins values, the source holds several entries; their conditions need not be identical. Equal entries are not always repeated.

The assay has as its system biotinylated monoclonal anti-25OH vitamin D antibody. Description: 25OH Vitamin D LOCI immunoassay, 3-epimer cross-reactivity, no anti-3-epimer antibody added. The format is binding, sheep. To be noted: No anti-3-epimer VD Ab added; for Avg. Cross-reactivity: average of ten patient sera spiked with 100 ng/mL 3-epimer D3. Here is the method:
The 25OH Vitamin D (25(OH)D) immunoassay format employed was a homogeneous competitive chemiluminescent immunoassay based on LOCI® assay technology. The assay was performed on the Siemens Dimension® EXL automated integrated clinical chemistry system (Siemens Healthcare Diagnostics Inc., Deerfield, Ill.). The assay measured the total concentration of 25(OH)D2 and/or 25(OH)D3 in serum and plasma samples. The LOCI® assay reagents included a releasing reagent, two synthetic bead reagents and a biotinylated monoclonal anti-25OH vitamin D antibody reagent. The first bead reagent (designated “Sensibeads”) was coated with streptavidin and contained a photosensitive dye. The second bead reagent (designated “Chemibeads”) was coated with a 25(OH)D3 analog and contained chemiluminescent dye. Sample was incubated with the releasing reagent to release 25(OH)D molecules including 3-epimeric compounds from vitamin D binding proteins. The reaction mixture was then incubated with biotinylated antibody to form a 25(OH)D-biotinylated antibody complex. […] Chemibeads were added to bind excess free biotinylated antibody. Sensibeads were then added to bind to the biotin portion of the biotinylated antibody. Aggregates of Chemibead-analog/antibody-biotin/streptavidin-Sensibeads were formed as a result. […] The resulting chemiluminescent signal was measured at 612 nm and is inversely proportional to the concentration of total 25(OH)D in the sample.
Biotinvlation of anti-25(OH)D antibody—NHS-PEO4-biotin (Pierce Chemical Company, Rockford Ill.) was coupled with the anti-25(OH)D antibody (a sheep monoclonal antibody from Bioventix, Farnham, Surrey, UK). […] The concentration was measured on UV A280. […]
The effect of adding anti-3-epimer-VD antibody 8F10.1 (anti-3-epimer VD Ab) on the 3-epimer cross-reactivity for the assay is shown in Table 1. […] The 3-epimer cross-reactivity was calculated by the difference between 25(OH)D2 or 25(OH)D3 values with and without the spiked 3-epimer compound divided by the amount of added 3-epimer compound.

For `C=C1CC[C@@H](O)C/C1=C/C=C1\CCC[C@]2(C)[C@@H]([C@H](C)CCCC(C)(C)O)CC[C@@H]12` [3-epimer D3, 3-epi-25-hydroxyvitamin D3], the “Avg. Cross-reactivity” value is 13.7%. For the setting “listed as 3-epimer vitamin D3 compound”, the “Avg. Cross-reactivity” value came out at 13.7%. Besides, the Cross-Reactivity (individual patient serum spiked with 100 ng/mL 3-epimer D3) was 17.9% (2×) and 11.9% and 12.6% and 16.1% and 10.2% and 9.1% and 10.5% and 15.3% and 15.5%.
